# Data published in patent US20090311217A1, “3-SUBSTITUTED-1H-INDOLE COMPOUNDS, THEIR USE AS MTOR KINASE AND PI3 KINASE INHIBITORS, AND THEIR SYNTHESES” (priority 2008, published 2009).
# Like-named read-outs stand apart in the source and are kept apart here.
# What was measured:
# Format in all cases: biochemical
# [1] = biological target: PI3K-gamma (Homo sapiens, UniProt P48736); assay: PI3K-gamma fluorescence polarization assay; conditions: PI3Kγ Avg. IC50
# In short: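 Reactions in 5 mM HEPES pH 7, 2.5 mM MgCl2, 25 μM ATP with 2.5 μM diC8-PI(4,5)P2 and 5 ng enzyme, 1 h at 25° C, then EDTA quench. Product detected by FP using GST-GRP1 PH domain (100 nM) and BODIPY-TMR-IP4 tracer (5 nM); final DMSO 0.8%.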
# [2] = biological target: PI3K-beta (Homo sapiens, UniProt P42338); assay: PI3K-beta fluorescence polarization assay; conditions: read-out: PI3Kβ Avg. IC50
# PI3K-beta, sequence (P42338 whole entry, species assumed): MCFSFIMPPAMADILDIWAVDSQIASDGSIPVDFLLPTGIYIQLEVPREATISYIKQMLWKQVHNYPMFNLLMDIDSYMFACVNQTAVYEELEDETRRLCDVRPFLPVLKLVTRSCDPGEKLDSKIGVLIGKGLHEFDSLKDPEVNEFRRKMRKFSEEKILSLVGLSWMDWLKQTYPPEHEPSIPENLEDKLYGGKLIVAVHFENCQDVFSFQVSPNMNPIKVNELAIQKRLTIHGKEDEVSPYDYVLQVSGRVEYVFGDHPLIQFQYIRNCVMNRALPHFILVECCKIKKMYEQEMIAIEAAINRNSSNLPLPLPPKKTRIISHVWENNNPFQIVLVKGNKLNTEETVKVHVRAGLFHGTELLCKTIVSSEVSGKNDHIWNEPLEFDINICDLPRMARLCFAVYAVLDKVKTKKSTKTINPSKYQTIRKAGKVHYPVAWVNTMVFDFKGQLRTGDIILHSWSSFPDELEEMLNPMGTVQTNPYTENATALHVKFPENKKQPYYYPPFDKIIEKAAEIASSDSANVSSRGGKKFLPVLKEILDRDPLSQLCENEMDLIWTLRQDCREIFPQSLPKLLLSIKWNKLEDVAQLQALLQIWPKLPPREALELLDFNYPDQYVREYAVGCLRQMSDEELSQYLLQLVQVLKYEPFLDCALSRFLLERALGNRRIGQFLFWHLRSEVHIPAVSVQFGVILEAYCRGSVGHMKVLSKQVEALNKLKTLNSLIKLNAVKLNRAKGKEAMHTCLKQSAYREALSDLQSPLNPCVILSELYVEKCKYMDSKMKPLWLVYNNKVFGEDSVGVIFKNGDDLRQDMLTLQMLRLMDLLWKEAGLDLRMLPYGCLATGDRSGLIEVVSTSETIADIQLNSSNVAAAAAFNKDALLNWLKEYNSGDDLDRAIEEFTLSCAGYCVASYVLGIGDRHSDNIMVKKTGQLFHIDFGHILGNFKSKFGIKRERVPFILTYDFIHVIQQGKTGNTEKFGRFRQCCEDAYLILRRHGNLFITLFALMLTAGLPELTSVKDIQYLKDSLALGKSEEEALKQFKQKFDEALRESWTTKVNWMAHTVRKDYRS
# PI3K-beta, sequence (P27986 whole entry partner, species assumed): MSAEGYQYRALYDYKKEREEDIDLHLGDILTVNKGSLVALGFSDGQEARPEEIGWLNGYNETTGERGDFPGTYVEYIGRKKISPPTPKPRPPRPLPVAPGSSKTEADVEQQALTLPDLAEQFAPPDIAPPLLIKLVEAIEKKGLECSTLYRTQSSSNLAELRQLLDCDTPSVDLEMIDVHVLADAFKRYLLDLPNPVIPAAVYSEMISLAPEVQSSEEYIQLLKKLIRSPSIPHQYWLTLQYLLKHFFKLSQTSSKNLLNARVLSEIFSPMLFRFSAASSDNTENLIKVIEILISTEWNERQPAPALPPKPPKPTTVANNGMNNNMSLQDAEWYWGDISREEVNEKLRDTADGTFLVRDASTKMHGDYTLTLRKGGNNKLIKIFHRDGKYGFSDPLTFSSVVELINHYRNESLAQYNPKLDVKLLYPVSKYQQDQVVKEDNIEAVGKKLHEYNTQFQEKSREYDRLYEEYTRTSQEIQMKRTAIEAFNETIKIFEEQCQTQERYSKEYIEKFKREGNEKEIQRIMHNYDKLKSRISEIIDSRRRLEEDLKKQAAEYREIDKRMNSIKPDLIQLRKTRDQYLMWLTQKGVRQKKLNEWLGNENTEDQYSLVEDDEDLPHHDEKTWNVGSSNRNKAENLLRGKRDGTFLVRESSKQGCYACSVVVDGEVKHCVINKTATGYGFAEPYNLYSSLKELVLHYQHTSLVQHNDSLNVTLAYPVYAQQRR
# Protocol: PI3K-Alpha, PI3K-Beta, PI3K-Gamma, and PI3K-delta Fluorescence Polarization Assay Protocols
# PI3-Kinase reactions were performed in 5 mM HEPES, pH 7, 2.5 mM MgCl2, and 25 μM ATP, with diC8-PI(4,5)P2 (Echelon, Salt Lake City Utah) as substrate. Nunc 384-well black polypropylene fluorescent plates were used for PI3K assays. Reactions were quenched by the addition of EDTA to a final concentration of 10 mM. Final reaction volumes were 10 μl. For evaluation of PI3K inhibitors, 5 ng of enzyme (PI3K-alpha, beta, gamma, or delta) and 2.5 μM of substrate was used per […] reaction volume, and inhibitor concentrations ranged from 100 μM to 20 μM; the final level of DMSO in reactions never exceeded 2%. Reactions were allowed to proceed for one hour at 25° C. After 1 hour, GST-tagged GRP1 (general receptor for phosphoinositides) PH domain fusion protein was added to a final concentration of 100 nM, and BODIPY-TMRI(1,3,4,5)P4 (Echelon) was also added to a final concentration of 5 nM. Final sample volumes were 25 μl with a final DMSO concentration of 0.8%. Assay Plates were read on Perkin-Elmer Envision plate readers with appropriate filters for Tamra [BODIPY-TMRI(1,3,4,5)P4]. Data obtained were used to calculate enzymatic activity and enzyme inhibition by inhibitor compounds.
# [3] = biological target: PI3K-delta (Homo sapiens, UniProt O00329); assay: PI3K-delta fluorescence polarization assay
# PI3K-delta, sequence (O00329 whole entry, species assumed): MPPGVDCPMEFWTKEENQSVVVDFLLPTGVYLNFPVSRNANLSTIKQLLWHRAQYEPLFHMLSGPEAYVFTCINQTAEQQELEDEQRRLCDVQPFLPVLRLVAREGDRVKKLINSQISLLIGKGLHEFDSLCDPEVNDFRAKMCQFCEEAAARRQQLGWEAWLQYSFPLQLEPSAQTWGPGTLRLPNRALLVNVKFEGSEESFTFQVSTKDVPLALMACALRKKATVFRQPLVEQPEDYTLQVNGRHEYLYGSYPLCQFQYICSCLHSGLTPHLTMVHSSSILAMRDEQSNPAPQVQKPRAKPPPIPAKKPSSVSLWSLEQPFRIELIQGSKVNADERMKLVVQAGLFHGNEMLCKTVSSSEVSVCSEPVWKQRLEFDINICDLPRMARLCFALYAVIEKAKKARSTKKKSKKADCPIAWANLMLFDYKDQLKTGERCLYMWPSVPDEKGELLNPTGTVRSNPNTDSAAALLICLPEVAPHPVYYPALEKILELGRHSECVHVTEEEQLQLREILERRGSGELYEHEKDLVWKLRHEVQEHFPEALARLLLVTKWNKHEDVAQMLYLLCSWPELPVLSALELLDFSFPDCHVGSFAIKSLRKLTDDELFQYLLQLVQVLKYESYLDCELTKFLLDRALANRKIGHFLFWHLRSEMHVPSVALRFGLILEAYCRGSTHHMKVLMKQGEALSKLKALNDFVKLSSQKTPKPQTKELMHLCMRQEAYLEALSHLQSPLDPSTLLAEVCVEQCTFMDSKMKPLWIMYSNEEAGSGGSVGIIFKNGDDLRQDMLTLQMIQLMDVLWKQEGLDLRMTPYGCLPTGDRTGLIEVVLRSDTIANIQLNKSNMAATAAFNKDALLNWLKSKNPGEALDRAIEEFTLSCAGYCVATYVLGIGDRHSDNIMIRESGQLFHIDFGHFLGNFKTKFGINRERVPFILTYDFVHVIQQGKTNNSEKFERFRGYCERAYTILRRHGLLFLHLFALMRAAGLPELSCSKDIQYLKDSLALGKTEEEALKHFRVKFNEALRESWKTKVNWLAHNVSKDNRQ
# PI3K-delta, sequence (P27986 whole entry partner, species assumed): as the sequence (P27986 whole entry partner, species assumed) above
# [4] = biological target: PI3K-alpha (Homo sapiens, UniProt P42336); assay: PI3K-alpha fluorescence polarization assay
# PI3K-alpha, sequence (P42336 whole entry, species assumed): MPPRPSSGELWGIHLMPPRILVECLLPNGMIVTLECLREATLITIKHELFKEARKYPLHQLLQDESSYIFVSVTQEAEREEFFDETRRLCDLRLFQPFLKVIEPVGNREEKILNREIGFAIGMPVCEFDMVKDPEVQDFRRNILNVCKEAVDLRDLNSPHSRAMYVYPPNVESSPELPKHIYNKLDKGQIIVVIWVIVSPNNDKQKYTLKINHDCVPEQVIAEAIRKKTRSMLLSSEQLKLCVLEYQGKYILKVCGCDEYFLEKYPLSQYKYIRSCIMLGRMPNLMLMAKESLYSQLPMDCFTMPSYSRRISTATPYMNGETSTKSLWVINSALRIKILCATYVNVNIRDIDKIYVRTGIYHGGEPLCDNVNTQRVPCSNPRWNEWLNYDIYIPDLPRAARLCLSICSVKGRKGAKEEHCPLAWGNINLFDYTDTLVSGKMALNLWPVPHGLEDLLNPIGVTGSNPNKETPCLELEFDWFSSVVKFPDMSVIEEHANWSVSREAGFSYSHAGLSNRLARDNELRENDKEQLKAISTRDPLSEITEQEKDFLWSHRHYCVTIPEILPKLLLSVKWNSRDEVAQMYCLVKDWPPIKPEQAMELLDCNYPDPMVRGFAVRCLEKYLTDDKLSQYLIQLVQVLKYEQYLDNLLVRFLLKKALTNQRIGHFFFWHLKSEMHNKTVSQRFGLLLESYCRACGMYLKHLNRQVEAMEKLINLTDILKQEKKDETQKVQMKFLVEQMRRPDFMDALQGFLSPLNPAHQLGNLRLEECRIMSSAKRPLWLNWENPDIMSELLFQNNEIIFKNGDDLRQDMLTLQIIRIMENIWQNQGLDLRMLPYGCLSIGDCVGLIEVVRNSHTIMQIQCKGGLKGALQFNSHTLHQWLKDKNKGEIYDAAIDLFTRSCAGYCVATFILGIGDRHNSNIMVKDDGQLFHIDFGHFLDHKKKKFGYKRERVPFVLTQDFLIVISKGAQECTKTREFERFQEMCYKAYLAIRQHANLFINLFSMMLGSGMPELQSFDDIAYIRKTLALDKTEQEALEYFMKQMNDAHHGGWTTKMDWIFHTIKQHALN
# PI3K-alpha, sequence (P27986 whole entry partner, species assumed): as the sequence (P27986 whole entry partner, species assumed) above
# [5] = biological target: T1, human TOR (Homo sapiens, UniProt P42345); assay: mTOR enzyme assay (DELFIA, His6-S6K substrate); conditions: read-out: mTOR Kinase Avg. IC50
# T1 construct: FLAG
# PI3K-gamma, sequence (P48736 whole entry, species assumed, the tested form may be a part): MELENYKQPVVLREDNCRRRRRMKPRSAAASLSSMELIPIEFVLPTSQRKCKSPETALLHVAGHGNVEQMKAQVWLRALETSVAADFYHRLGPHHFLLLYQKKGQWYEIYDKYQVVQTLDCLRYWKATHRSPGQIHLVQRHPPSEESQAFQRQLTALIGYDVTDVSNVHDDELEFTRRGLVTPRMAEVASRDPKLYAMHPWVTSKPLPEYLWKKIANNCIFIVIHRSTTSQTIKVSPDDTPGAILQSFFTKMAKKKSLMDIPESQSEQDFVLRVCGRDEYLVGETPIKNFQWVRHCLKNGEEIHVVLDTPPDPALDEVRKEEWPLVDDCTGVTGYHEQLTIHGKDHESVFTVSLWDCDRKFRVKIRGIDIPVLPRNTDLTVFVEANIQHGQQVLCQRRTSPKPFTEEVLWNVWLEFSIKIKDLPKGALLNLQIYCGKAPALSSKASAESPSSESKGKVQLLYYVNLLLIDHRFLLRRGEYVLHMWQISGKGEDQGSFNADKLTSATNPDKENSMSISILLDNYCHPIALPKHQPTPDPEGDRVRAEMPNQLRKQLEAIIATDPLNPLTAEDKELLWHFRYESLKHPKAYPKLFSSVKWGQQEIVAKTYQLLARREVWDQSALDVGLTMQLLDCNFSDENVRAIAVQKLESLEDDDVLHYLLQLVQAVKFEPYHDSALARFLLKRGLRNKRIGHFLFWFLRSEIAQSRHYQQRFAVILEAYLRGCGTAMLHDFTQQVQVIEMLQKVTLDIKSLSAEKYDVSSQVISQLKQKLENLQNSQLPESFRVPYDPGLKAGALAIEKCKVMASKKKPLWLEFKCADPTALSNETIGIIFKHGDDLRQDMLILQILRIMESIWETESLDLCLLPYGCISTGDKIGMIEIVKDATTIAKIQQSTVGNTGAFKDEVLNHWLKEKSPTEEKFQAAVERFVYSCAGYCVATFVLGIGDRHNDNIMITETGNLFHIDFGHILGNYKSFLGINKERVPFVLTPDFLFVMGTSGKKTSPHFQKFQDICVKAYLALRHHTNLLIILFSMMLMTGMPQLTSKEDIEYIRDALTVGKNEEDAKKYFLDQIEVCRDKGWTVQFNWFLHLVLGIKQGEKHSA
SMILES,IC50 [1] [nM],IC50 [2] [nM],IC50 ([3]; read-out: PI3Kδ Avg. IC50) [nM],IC50 ([4]; read-out: PI3Kα Avg. IC50) [nM],IC50 [5] [nM],IC50 ([4]; PI3Kα Avg. IC50) [nM],IC50 [3] [nM]
"COc1ccc2c(c1)c(C=C1Oc3cc(O)cc(O)c3C1=O)cn2CCCN1CCN(CCO)CC1 [Example 113, 4,6-dihydroxy-2-[(1-{3-[4-(2-hydroxyethyl)piperazin-1-yl]propyl}-5-methoxy-1H-indol-3-yl)methylene]-1-benzofuran-3(2H)-one]",1360,243,7,–,1650,37,–
"COc1ccc2c(c1)c(C=C1Oc3cc(O)cc(O)c3C1=O)c(C)n2CCCCN1CCN(C)CC1 [Example 96, 4,6-dihydroxy-2-({5-methoxy-2-methyl-1-[4-(4-methylpiperazin-1-yl)butyl]-1H-indol-3-yl}methylene)-1-benzofuran-3(2H)-one]",238,10,2,11.3,< 31,–,–
"COc1ccc2c(c1)c(/C=C1\Oc3cc(O)cc(O)c3C1=O)c(C(=O)N(C)C)n2CCN1CCC(O)C1 (stereo not shown) [Example 306, 3-[(Z)-(4,6-Dihydroxy-3-oxo-1-benzofuran-2(3H)-ylidene)methyl]-1-[2-(3-hydroxypyrrolidin-1-yl)ethyl]-5-methoxy-N,N-dimethyl-1H-indole-2-carboxamide]",144,20.5,3,8.5,130,–,–
"COc1ccc2c(c1)c(/C=C1\Oc3cc(O)ccc3C1=O)c(C)n2CCCN(C)C [Example 307, (2Z)-2-({1-[3-(Dimethylamino)propyl]-5-methoxy-2-methyl-1H-indol-3-yl}methylene)-6-hydroxy-1-benzofuran-3(2H)-one]",1820,72.5,2.5,18.5,3700,–,–
"COc1ccc2c(c1)c(/C=C1\Oc3cc(O)cc(O)c3C1=O)cn2CCCN(C)C [Example 323, (2Z)-2-({1-[3-(Dimethylamino)propyl]-5-methoxy-1H-indol-3-yl}methylene)-4,6-dihydroxy-1-benzofuran-3(2H)-one]",605,120,4,20.5,930,–,–
"O=C1/C(=C/c2c(-c3ccccc3)[nH]c3ccccc23)Oc2c1ccc(O)c2O [Example 53, (2Z)-6,7-dihydroxy-2-[(2-phenyl-1H-indol-3-yl)methylene]-1-benzofuran-3(2H)-one]",1470,132,70.3,182,> 30000,–,–
"COc1ccc2c(c1)c(/C=C1\Oc3cc(O)cc(O)c3C1=O)cn2CCN1CCC(O)CC1 [Example 319, (2Z)-4,6-Dihydroxy-2-({1-[2-(4-hydroxypiperidin-1-yl)ethyl]-5-methoxy-1H-indol-3-yl}methylene)-1-benzofuran-3(2H)-one]",117,108,3.5,38.3,265,–,–
"O=C1/C(=C/c2c(-c3ccc(Cl)cc3)[nH]c3ccccc23)Oc2c1ccc(O)c2O [Example 54, (2Z)-2-{[2-(4-chlorophenyl)-1H-indol-3-yl]methylene}-6,7-dihydroxy-1-benzofuran-3(2H)-one]",1060,98,33.5,111,9600,–,–
"COc1ccc2c(c1)c(/C=C1\Oc3cc(O)cc(O)c3C1=O)c(C)n2CCCN(C)C [Example 305, (2Z)-2-({1-[3-(Dimethylamino)propyl]-5-methoxy-2-methyl-1H-indol-3-yl}methylene)-4,6-dihydroxy-1-benzofuran-3(2H)-one]",228,28.5,–,–,205,5,5
"COc1ccc2c(c1)c(/C=C1\Oc3cc(O)cc(O)c3C1=O)c(C1CC1)n2CCN1CCN(C)CC1 [Example 302, (2Z)-2-({2-Cyclopropyl-5-methoxy-1-[2-(4-methylpiperazin-1-yl)ethyl]-1H-indol-3-yl}methylene)-4,6-dihydroxy-1-benzofuran-3(2H)-one]",764,14,< 2.5,17,300,–,–

# The next lines start with results.
IC50 [1] [nM],IC50 [2] [nM],IC50 ([3]; read-out: PI3Kδ Avg. IC50) [nM],IC50 ([4]; read-out: PI3Kα Avg. IC50) [nM],IC50 [5] [nM],SMILES,IC50 ([4]; PI3Kα Avg. IC50) [nM],IC50 [3] [nM]
3270,505,9,66,> 800,"COc1ccc2c(c1)c(/C=C1\Oc3cc(O)c(F)cc3C1=O)c(C)n2CCN1CCN(C)CC1 [Example 351, (2Z)-5-Fluoro-6-hydroxy-2-({5-methoxy-2-methyl-1-[2-(4-methylpiperazin-1-yl)ethyl]-1H-indol-3-yl}methylene)-1-benzofuran-3(2H)-one]",–,–
239,95.5,< 1,7.5,> 800,"COc1ccc2c(c1)c(/C=C1\Oc3cc(O)ccc3C1=O)c(C)n2CCCN1CCCCCC1 [Example 358, (2Z)-2-{[1-(3-Azepan-1-ylpropyl)-5-methoxy-2-methyl-1H-indol-3-yl]methylene}-6-hydroxy-1-benzofuran-3(2H)-one]",–,–
3,7.5,1.6,2,< 0.82,"COc1ccc2c(c1)c(/C=C1\Oc3cc(O)cc(O)c3C1=O)c(C1CC1)n2CCn1cccn1 [Example 340, (2Z)-2-({2-Cyclopropyl-5-methoxy-1-[2-(1H-pyrazol-1-yl)ethyl]-1H-indol-3-yl}methylene)-4,6-dihydroxy-1-benzofuran-3(2H)-one]",–,–
5590,931,19,82.5,> 20000,"COc1ccc2c(c1)c(/C=C1\Oc3cc(O)c(Br)cc3C1=O)c(C)n2CCN1CCN(C)CC1 [Example 349, (2Z)-5-Bromo-6-hydroxy-2-({5-methoxy-2-methyl-1-[2-(4-methylpiperazin-1-yl)ethyl]-1H-indol-3-yl}methylene)-1-benzofuran-3(2H)-one]",–,–
150,88,9.5,58,540,"COc1ccc2c(c1)c(/C=C1\Oc3cc(O)cc(O)c3C1=O)cn2CCN1CCC(O)C1 (stereo not shown) [Example 326, (2Z)-4,6-Dihydroxy-2-({1-[2-(3-hydroxypyrrolidin-1-yl)ethyl]-5-methoxy-1H-indol-3-yl}methylene)-1-benzofuran-3(2H)-one]",–,–
22.8,7.1,0.8,1.7,10.8,"COc1ccc2c(c1)c(/C=C1\Oc3cc(O)cc(O)c3C1=O)c(-c1cnn(C)c1)n2CCN1CCN(C)CC1 [Example 341, (2Z)-4,6-Dihydroxy-2-({5-methoxy-1-[2-(4-methylpiperazin-1-yl)ethyl]-2-(1-methyl-1H-pyrazol-4-yl)-1H-indol-3-yl}methylene)-1-benzofuran-3(2H)-one]",–,–
39,9.5,2.5,11,< 30,"COc1ccc2c(c1)c(/C=C1\Oc3cc(O)cc(O)c3C1=O)c(C)n2CCN1CCC(O)C1 (stereo not shown) [Example 327, (2Z)-4,6-Dihydroxy-2-({1-[2-(3-hydroxypyrrolidin-1-yl)ethyl]-5-methoxy-2-methyl-1H-indol-3-yl}methylene)-1-benzofuran-3(2H)-one]",–,–
3.2,1.3,0.3,1.5,1.25,"COc1ccc2[nH]c(-c3c(C)noc3C)c(/C=C3\Oc4cc(O)cc(O)c4C3=O)c2c1 [Example 360, (2Z)-2-{[2-(3,5-Dimethylisoxazol-4-yl)-5-methoxy-1H-indol-3-yl]methylene}-4,6-dihydroxy-1-benzofuran-3(2H)-one]",–,–
8.5,93.7,20.3,5.5,39.5,"COc1ccc2[nH]c(C(=O)O)c(/C=C3\Oc4cc(O)cc(O)c4C3=O)c2c1 [Example 339, 3-[(Z)-(4,6-Dihydroxy-3-oxo-1-benzofuran-2(3H)-ylidene)methyl]-5-methoxy-1H-indole-2-carboxylic acid]",–,–
38,8,2,4,22,"COc1ccc2[nH]c(CN(C)C)c(/C=C3\Oc4cc(O)cc(O)c4C3=O)c2c1 [Example 353, (2Z)-2-({2-[(Dimethylamino)methyl]-5-methoxy-1H-indol-3-yl}methylene)-4,6-dihydroxy-1-benzofuran-3(2H)-one]",–,–
